Laboratory results taken from PubChem BioAssay AID248 (DTP/NCI, 2004).
Where “and” joins values, the source holds several entries; their conditions need not be identical. Equal entries are not always repeated. Toxic doses and inconclusive results are not listed. No stated cut-off is given here; in the data, active means T/C of 150% or more; inactive means T/C below 125%.

Tested on: L1210 leukemia ip in BDF1 mice, survival T/C
Experiment: NCI In Vivo Anticancer Drug Screen. Data for tumor model L1210 Leukemia (intraperitoneal) in B6D2F1 (BDF1) mice
Conditions: endpoint: mean survival time, higher = longer survival
Outline: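 Antitumor effect is assessed in tumor-bearing animals. Survival in the compound arm is compared with a vehicle-dosed control arm and expressed as their quotient.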

[1] = dose: 100.0 mg/kg/injection, schedule: Q01DX009 (ip), vehicle: Klucel (hydroxypropylcellulose) (HPC)
[2] = dose: 100.0 mg/kg/injection, schedule: Q04DX003 (ip), vehicle: Klucel (hydroxypropylcellulose) (HPC)
[3] = dose: 200.0 mg/kg/injection, schedule: Q01DX009 (ip), vehicle: Klucel (hydroxypropylcellulose) (HPC)
[4] = dose: 200.0 mg/kg/injection, schedule: Q04DX003 (ip), vehicle: Klucel (hydroxypropylcellulose) (HPC)
[5] = dose: 400.0 mg/kg/injection, schedule: Q04DX003 (ip), vehicle: Klucel (hydroxypropylcellulose) (HPC)
[6] = dose: 100.0 mg/kg/injection, schedule: Q04DX003 (ip), vehicle: saline with Tween-80
[7] = dose: 200.0 mg/kg/injection, schedule: Q04DX003 (ip), vehicle: saline with Tween-80
[8] = dose: 400.0 mg/kg/injection, schedule: Q04DX003 (ip), vehicle: saline with Tween-80
[9] = dose: 400.0 mg/kg/injection, schedule: Q01DX009 (ip), vehicle: Klucel (hydroxypropylcellulose) (HPC)
[10] = dose: 100.0 mg/kg/injection, schedule: Q04DX002 (ip), vehicle: saline with Tween-80
[11] = dose: 200.0 mg/kg/injection, schedule: Q04DX002 (ip), vehicle: saline with Tween-80
[12] = dose: 400.0 mg/kg/injection, schedule: Q04DX002 (ip), vehicle: saline with Tween-80
[13] = dose: 100.0 mg/kg/injection, schedule: Q01DX001 (ip), vehicle: saline
[14] = dose: 200.0 mg/kg/injection, schedule: Q01DX001 (ip), vehicle: saline
[15] = dose: 100.0 mg/kg/injection, schedule: Q01DX009 (ip), vehicle: saline with Tween-80
[16] = dose: 200.0 mg/kg/injection, schedule: Q01DX009 (ip), vehicle: saline with Tween-80
[17] = dose: 400.0 mg/kg/injection, schedule: Q01DX009 (ip), vehicle: saline with Tween-80
[18] = dose: 100.0 mg/kg/injection, schedule: Q04DX002 (ip), vehicle: Klucel (hydroxypropylcellulose) (HPC)
[19] = dose: 200.0 mg/kg/injection, schedule: Q04DX002 (ip), vehicle: Klucel (hydroxypropylcellulose) (HPC)

Measured: T/C

CCC(=O)OC1CCC2C3CCC4=CC(=O)CCC4(C)C3CCC12C (configuration not stated)
inactive: dose: 100.0 mg/kg/injection, schedule: Q01DX001 (ip), vehicle: carboxymethylcellulose (CMC) 107 % of control | dose: 200.0 mg/kg/injection, schedule: Q01DX001 (ip), vehicle: carboxymethylcellulose (CMC) 96 % of control | dose: 400.0 mg/kg/injection, schedule: Q01DX001 (ip), vehicle: carboxymethylcellulose (CMC) 96 % of control

CC(=O)Nc1nc2ncc(C=Nc3cncnc3)nc2c(=O)[nH]1
inactive: dose: 100.0 mg/kg/injection, schedule: Q01DX001 (ip), vehicle: alkali diluted with saline 108 % of control | dose: 200.0 mg/kg/injection, schedule: Q01DX001 (ip), vehicle: alkali diluted with saline 94 % of control | dose: 400.0 mg/kg/injection, schedule: Q01DX001 (ip), vehicle: alkali diluted with saline 92 % of control

Cc1nc(N)ccc1[N+](=O)[O-]
inactive: dose: 100.0 mg/kg/injection, schedule: Q04DX003 (ip), vehicle: saline sonified 98 % of control | dose: 200.0 mg/kg/injection, schedule: Q04DX003 (ip), vehicle: saline sonified 101 % of control | dose: 400.0 mg/kg/injection, schedule: Q04DX003 (ip), vehicle: saline sonified 104 % of control

C(=C(/c1ccccc1)N1CCOCC1)/c1ccccc1
inactive: dose: 100.0 mg/kg/injection, schedule: Q04DX002 (sc), vehicle: olive oil, sesame oil, peanut oil 118 % of control | dose: 200.0 mg/kg/injection, schedule: Q04DX002 (sc), vehicle: olive oil, sesame oil, peanut oil 99 % of control | dose: 400.0 mg/kg/injection, schedule: Q04DX002 (sc), vehicle: olive oil, sesame oil, peanut oil 99 % of control

c1ccc(CC2CCCCCC2)cc1
inactive: [1] 96 % of control | [2] 100 % of control | dose: 150.0 mg/kg/injection, schedule: Q01DX009 (ip), vehicle: Klucel (hydroxypropylcellulose) (HPC) 101 % of control | [3] 102 % of control | [4] 91 % of control | [5] 96 % of control

C/C(=N\Nc1nc2ccccc2s1)c1ccc2c(c1)Sc1ccccc1O2
inactive: dose: 75.0 mg/kg/injection, schedule: Q04DX003 (ip), vehicle: saline 87 % of control | dose: 150.0 mg/kg/injection, schedule: Q04DX003 (ip), vehicle: saline 90 % of control

COC1OC2COc3ccccc3OC2C(N=Cc2ccccc2)C1O (configuration not stated)
inactive: [6] 102 % of control | [7] 102 % of control | [8] 98 % of control

CCOC(=O)C1=NN(c2ccccc2)C(=O)C1
inactive: [1] 105 % of control | [2] 98 % of control | [6] 94 % of control | [3] 103 % of control | [4] 96 % of control | [7] 100 % of control | [9] 92 % of control | [5] 102 % of control | [8] 93 % of control

COC(=O)C1OC(n2cnc3c(N)ncnc32)C2OC(C)(C)OC12 (configuration not stated)
inactive: dose: 100.0 mg/kg/injection, schedule: Q01DX005 (ip), vehicle: saline 102 % of control | dose: 200.0 mg/kg/injection, schedule: Q01DX005 (ip), vehicle: saline 104 % of control

Cc1cccc(Cl)c1NC(=S)N1CCCC1
inactive: [1] 94 % of control | [3] 94 % of control | [9] 96 % of control

OC(CNc1ccc(Cl)cc1)CN1CCOCC1 (configuration not stated)
inactive: dose: 100.0 mg/kg/injection, schedule: Q04DX003 (ip), vehicle: saline 96 % of control | dose: 200.0 mg/kg/injection, schedule: Q04DX003 (ip), vehicle: saline 89 % of control

Brc1cc(Br)cc(Br)c1
inactive: [2] 92 % of control and 98 % of control | [4] 101 % of control and 105 % of control | [5] 98 % of control and 103 % of control

CC12CCCCC1CC(=O)CC2 (configuration not stated)
inactive: [10] 99 % of control | [11] 86 % of control | [12] 96 % of control

CCCCN=C(C(=O)NCCCC)c1ccccc1NC(C)=O
inactive: [1] 97 % of control | [3] 86 % of control

CCCCCCCCCCOC(=O)c1ccccn1
inactive: [13] 93 % of control | [14] 87 % of control

CCc1nc2[nH]c(N)nc(=S)c2cc1C
inactive: dose: 100.0 mg/kg/injection, schedule: Q01DX Z (ip), vehicle: methylcellulose (MC) 95 % of control | dose: 200.0 mg/kg/injection, schedule: Q01DX Z (ip), vehicle: methylcellulose (MC) 95 % of control

CC1Oc2ccccc2NC1=O (configuration not stated)
inactive: [10] 102 % of control | [11] 106 % of control | [12] 98 % of control

Cc1ccc(S(=O)(=O)SC(Cl)(Cl)Cl)cc1
inactive: dose: 50.0 mg/kg/injection, schedule: Q01DX009 (ip), vehicle: saline 105 % of control

O=S(=O)(Cl)c1cccc2cc3ccccc3cc12
inactive: [13] 92 % of control | [15] 107 % of control | [14] 100 % of control | [16] 102 % of control | dose: 400.0 mg/kg/injection, schedule: Q01DX001 (ip), vehicle: saline 98 % of control | [17] 103 % of control

CON(C)S(=O)(=O)c1ccc(Cl)cc1
inactive: [2] 100 % of control | [4] 103 % of control | [5] 105 % of control

CCCCCCCCCCCCN(C)S(=O)(=O)c1ccc(Cl)c(N)c1
inactive: [15] 95 % of control | [2] 91 % of control | [16] 89 % of control | [4] 108 % of control | [17] 93 % of control | [5] 89 % of control

O=C1OC(c2ccc([N+](=O)[O-])cc2)=N/C1=C\c1cccc2ccccc12
inactive: dose: 100.0 mg/kg/injection, schedule: Q01DX009 (ip), vehicle: other 96 % of control | dose: 200.0 mg/kg/injection, schedule: Q01DX009 (ip), vehicle: other 88 % of control | dose: 400.0 mg/kg/injection, schedule: Q01DX009 (ip), vehicle: other 93 % of control

CC1=NOC(=O)C12CC2
inactive: dose: 75.0 mg/kg/injection, schedule: Q01DX001 (ip), vehicle: saline 100 % of control | dose: 150.0 mg/kg/injection, schedule: Q01DX001 (ip), vehicle: saline 100 % of control | dose: 300.0 mg/kg/injection, schedule: Q01DX001 (ip), vehicle: saline 103 % of control

CCC(=Nc1ccccc1)Nc1ccccc1
inactive: [18] 106 % of control | [19] 106 % of control | dose: 400.0 mg/kg/injection, schedule: Q04DX002 (ip), vehicle: Klucel (hydroxypropylcellulose) (HPC) 109 % of control

O=C1c2ccccc2C(c2ccccc2)C1c1ccccc1 (configuration not stated)
inactive: dose: 50.0 mg/kg/injection, schedule: Q04DX002 (ip), vehicle: Klucel (hydroxypropylcellulose) (HPC) 108 % of control | [18] 94 % of control | [19] 94 % of control

CCOC(=O)Cc1cc(OC)c(OC)c(OC)c1
inactive: dose: 100.0 mg/kg/injection, schedule: Q04DX003 (ip), vehicle: acetone 98 % of control | dose: 200.0 mg/kg/injection, schedule: Q04DX003 (ip), vehicle: acetone 94 % of control

O=[N+]([O-])c1ccc(/C([O-])=C(\C(=S)Nc2ccccc2Cl)[n+]2ccccc2)cc1
inactive: [10] 96 % of control | [11] 89 % of control | [12] 96 % of control

CC(=O)N1CC(n2cnc3c(N)ncnc32)CC1CO (configuration not stated)
inactive: dose: 12.5 mg/kg/injection, schedule: Q04DX002 (ip), vehicle: saline with Tween-80 102 % of control | dose: 25.0 mg/kg/injection, schedule: Q04DX002 (ip), vehicle: saline with Tween-80 98 % of control | dose: 50.0 mg/kg/injection, schedule: Q04DX002 (ip), vehicle: saline with Tween-80 94 % of control

Cc1cccc(Cl)c1NC(=O)NCCCl
inactive: [2] 94 % of control | [4] 92 % of control | [5] 94 % of control

Cn1c(C(O)(Cc2ccccn2)Cc2ccccn2)cc2ccccc21
inactive: [10] 90 % of control | [11] 90 % of control | [12] 97 % of control

COC1OC(C)C(NC(C)=O)C(OCc2ccccc2)C1OCc1ccccc1 (configuration not stated)
inactive: [2] 95 % of control | [4] 95 % of control | [5] 97 % of control

CCC(=C\c1sc2ccc3ccccc3c2[n+]1CC)/C=C1/Sc2ccc3ccccc3c2N1CC
inactive: dose: 2.0 mg/kg/injection, schedule: Q01DX001 (ip), vehicle: other 117 % of control | dose: 4.0 mg/kg/injection, schedule: Q01DX001 (ip), vehicle: other 95 % of control | dose: 8.0 mg/kg/injection, schedule: Q01DX001 (ip), vehicle: other 88 % of control
